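Growth conditions: 96-well plates. Treatment: test compound, 48 hours, 5 concentrations. Analysis: linear interpolation between bracketing concentrations; unreached endpoints set to highest concentration. TGI: concentration producing complete growth inhibition.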
test system: 786-0 renal; assay: NCI-60 cell line screen, 48 h

| SMILES | TGI [µM] |
| --- | --- |
| CN(Cc1cnc2nc(N)nc(N)c2n1)c1ccc(C(=O)NC(CCC(=O)NCCC(P(=O)(O)O)P(=O)(O)O)C(=O)O)cc1 (stereo not given) | > 100 |
| O=C1NC(NNc2ccccc2)=N/C1=C\c1ccccc1O | > 100 |
| CCOC(=O)C1=C(C)N(Cc2ccc(Cl)cc2Cl)C2(O)C=CC(=O)C3C(=O)N(c4ccccc4)C(=O)C132 (stereo not given) | > 100 |
| N=C1/C(=C/c2ccc(F)cc2)C(=O)N=C2SC=NN12 | > 100 |
| COC(=O)CC(C#N)(OP1(=O)OC(c2ccccc2)C(C)N1C)c1ccccc1 (stereo not given) | 83 |
| CN1CCN(C(=O)CCNC(=O)Cc2ccc(C(=O)c3ccccc3)cc2)CC1 | > 100 |
| O=c1cnn(C2OC(C(O)CO)C(O)C2O)c(=O)[nH]1 (stereo not given) | > 100 |
| COc1ccc(N2C(=O)C(=O)N(c3ccccc3[N+](=O)[O-])C2=S)cc1 | > 100 |
| Nc1c2c(nc3cc(F)c(F)cc13)CCC2 | > 100 |
| CCCn1c2ccccc2c2ccc3c(c21)C(=O)C=CC3=O | 3.27 |
| C=C(CCC/C(C)=C/C=C/[C@]1(C)CCCc2ccoc21)CC(=O)O | > 100 |
| CCOC(=O)c1c(NC(=O)c2cccs2)sc2c1CCCC2 | > 100 |
| CCCC[C@@H]1CCN2C[C@@H](O)[C@@H](O)[C@@H]2[C@H]1O | > 100 |

test system: CAKI-1 renal; assay: NCI-60 cell line screen, 48 h

| SMILES | TGI [µM] |
| --- | --- |
| CN(Cc1cnc2nc(N)nc(N)c2n1)c1ccc(C(=O)NC(CCC(=O)NCCC(P(=O)(O)O)P(=O)(O)O)C(=O)O)cc1 (stereo not given) | > 100 |
| O=C1NC(NNc2ccccc2)=N/C1=C\c1ccccc1O | > 100 |
| CCOC(=O)C1=C(C)N(Cc2ccc(Cl)cc2Cl)C2(O)C=CC(=O)C3C(=O)N(c4ccccc4)C(=O)C132 (stereo not given) | 9.36 |
| N=C1/C(=C/c2ccc(F)cc2)C(=O)N=C2SC=NN12 | > 100 |
| COC(=O)CC(C#N)(OP1(=O)OC(c2ccccc2)C(C)N1C)c1ccccc1 (stereo not given) | 69.3 |
| CN1CCN(C(=O)CCNC(=O)Cc2ccc(C(=O)c3ccccc3)cc2)CC1 | > 100 |
| O=c1cnn(C2OC(C(O)CO)C(O)C2O)c(=O)[nH]1 (stereo not given) | > 100 |
| COc1ccc(N2C(=O)C(=O)N(c3ccccc3[N+](=O)[O-])C2=S)cc1 | > 100 |
| Nc1c2c(nc3cc(F)c(F)cc13)CCC2 | > 100 |
| CCCn1c2ccccc2c2ccc3c(c21)C(=O)C=CC3=O | 6.1 |
| C=C(CCC/C(C)=C/C=C/[C@]1(C)CCCc2ccoc21)CC(=O)O | > 100 |
| CCOC(=O)c1c(NC(=O)c2cccs2)sc2c1CCCC2 | > 100 |
| CCCC[C@@H]1CCN2C[C@@H](O)[C@@H](O)[C@@H]2[C@H]1O | > 100 |

test system: EKVX NSCLC; assay: NCI-60 cell line screen, 48 h

| SMILES | TGI [µM] |
| --- | --- |
| CN(Cc1cnc2nc(N)nc(N)c2n1)c1ccc(C(=O)NC(CCC(=O)NCCC(P(=O)(O)O)P(=O)(O)O)C(=O)O)cc1 (stereo not given) | > 100 |
| O=C1NC(NNc2ccccc2)=N/C1=C\c1ccccc1O | > 100 |
| CCOC(=O)C1=C(C)N(Cc2ccc(Cl)cc2Cl)C2(O)C=CC(=O)C3C(=O)N(c4ccccc4)C(=O)C132 (stereo not given) | 4.35 |
| N=C1/C(=C/c2ccc(F)cc2)C(=O)N=C2SC=NN12 | > 100 |
| COC(=O)CC(C#N)(OP1(=O)OC(c2ccccc2)C(C)N1C)c1ccccc1 (stereo not given) | 60.3 |
| CN1CCN(C(=O)CCNC(=O)Cc2ccc(C(=O)c3ccccc3)cc2)CC1 | > 100 |
| O=c1cnn(C2OC(C(O)CO)C(O)C2O)c(=O)[nH]1 (stereo not given) | > 100 |
| COc1ccc(N2C(=O)C(=O)N(c3ccccc3[N+](=O)[O-])C2=S)cc1 | > 100 |
| Nc1c2c(nc3cc(F)c(F)cc13)CCC2 | > 100 |
| CCCn1c2ccccc2c2ccc3c(c21)C(=O)C=CC3=O | > 7.95 |
| C=C(CCC/C(C)=C/C=C/[C@]1(C)CCCc2ccoc21)CC(=O)O | > 100 |
| CCOC(=O)c1c(NC(=O)c2cccs2)sc2c1CCCC2 | > 100 |
| CCCC[C@@H]1CCN2C[C@@H](O)[C@@H](O)[C@@H]2[C@H]1O | > 100 |

test system: HCC-2998 colon; assay: NCI-60 cell line screen, 48 h

| SMILES | TGI [µM] |
| --- | --- |
| CN(Cc1cnc2nc(N)nc(N)c2n1)c1ccc(C(=O)NC(CCC(=O)NCCC(P(=O)(O)O)P(=O)(O)O)C(=O)O)cc1 (stereo not given) | > 100 |
| O=C1NC(NNc2ccccc2)=N/C1=C\c1ccccc1O | > 100 |
| CCOC(=O)C1=C(C)N(Cc2ccc(Cl)cc2Cl)C2(O)C=CC(=O)C3C(=O)N(c4ccccc4)C(=O)C132 (stereo not given) | 3.54 |
| N=C1/C(=C/c2ccc(F)cc2)C(=O)N=C2SC=NN12 | > 100 |
| COC(=O)CC(C#N)(OP1(=O)OC(c2ccccc2)C(C)N1C)c1ccccc1 (stereo not given) | 31.6 |
| CN1CCN(C(=O)CCNC(=O)Cc2ccc(C(=O)c3ccccc3)cc2)CC1 | > 100 |
| O=c1cnn(C2OC(C(O)CO)C(O)C2O)c(=O)[nH]1 (stereo not given) | > 100 |
| COc1ccc(N2C(=O)C(=O)N(c3ccccc3[N+](=O)[O-])C2=S)cc1 | > 100 |
| Nc1c2c(nc3cc(F)c(F)cc13)CCC2 | 35.1 |
| CCCn1c2ccccc2c2ccc3c(c21)C(=O)C=CC3=O | > 10 |
| C=C(CCC/C(C)=C/C=C/[C@]1(C)CCCc2ccoc21)CC(=O)O | > 100 |
| CCOC(=O)c1c(NC(=O)c2cccs2)sc2c1CCCC2 | > 100 |
| CCCC[C@@H]1CCN2C[C@@H](O)[C@@H](O)[C@@H]2[C@H]1O | > 100 |

test system: HCT-116 colon; assay: NCI-60 cell line screen, 48 h

| SMILES | TGI [µM] |
| --- | --- |
| CN(Cc1cnc2nc(N)nc(N)c2n1)c1ccc(C(=O)NC(CCC(=O)NCCC(P(=O)(O)O)P(=O)(O)O)C(=O)O)cc1 (stereo not given) | > 100 |
| O=C1NC(NNc2ccccc2)=N/C1=C\c1ccccc1O | > 100 |
| CCOC(=O)C1=C(C)N(Cc2ccc(Cl)cc2Cl)C2(O)C=CC(=O)C3C(=O)N(c4ccccc4)C(=O)C132 (stereo not given) | > 100 |
| N=C1/C(=C/c2ccc(F)cc2)C(=O)N=C2SC=NN12 | > 100 |
| COC(=O)CC(C#N)(OP1(=O)OC(c2ccccc2)C(C)N1C)c1ccccc1 (stereo not given) | 52.4 |
| CN1CCN(C(=O)CCNC(=O)Cc2ccc(C(=O)c3ccccc3)cc2)CC1 | > 100 |
| O=c1cnn(C2OC(C(O)CO)C(O)C2O)c(=O)[nH]1 (stereo not given) | > 100 |
| COc1ccc(N2C(=O)C(=O)N(c3ccccc3[N+](=O)[O-])C2=S)cc1 | > 100 |
| Nc1c2c(nc3cc(F)c(F)cc13)CCC2 | > 100 |
| CCCn1c2ccccc2c2ccc3c(c21)C(=O)C=CC3=O | 3.13 |
| C=C(CCC/C(C)=C/C=C/[C@]1(C)CCCc2ccoc21)CC(=O)O | > 100 |
| CCOC(=O)c1c(NC(=O)c2cccs2)sc2c1CCCC2 | > 100 |
| CCCC[C@@H]1CCN2C[C@@H](O)[C@@H](O)[C@@H]2[C@H]1O | > 100 |

Reference: PubChem BioAssay (NCI)
